Ends that are not written are not given here.
Tests used:
Assay type in all cases: cell-based
thioredoxin 1 = experiment: Western Blot of thioredoxin 1 in LNCaP cells; conditions: 1 μM, 72 hour exposure, control R.I: 0.210
Experimental: (§1) FIG. 7: is a Western Blot analysis of expression of the antioxidant enzymes TRX1, NQ01, GPX1 and SOD1 in LNCaP prostate cancer cell line after 72 hour exposure to GHRH antagonist JMR-132 and GHRH(1-29)NH2 n=2.
(§2) Prostate cancer cells LNCaP and breast cancer cells MCF-7 were obtained from American Type Culture Collection (Manassas, Va.) and were cultured as described previously. The antibodies that detect P53, PCNA, GPX1, SOD1, NQ01, Thioredoxin 1, COX2 and COX IV were purchased from Cell Signalling (Danvers, Mass.). The antibodies that detect β actin, NFκB50, pNFκB50, caspase 3 and its cleaved form were purchased from Santa Cruz Biotechnology (Santa Cruz, Calif.). The antibodies against GHRH-R (batch number: SV95) and SV1 (batch number: JH 2317/5) were raised in our laboratory. The signals for the immunoreactive proteins were visualized in a Chemi Doc XRS system (Biorad, Hercules, Calif.). The western Blot assay as well the quantification analysis of the blots was performed as described previously.
(§3) LNCaP prostate cancer cell line cultured in vitro was exposed to 1 μM JMR-132 and GHRH(1-29)NH2. The expression levels of the detoxifying enzymes were measured by Western Blot. The GPX1 (M.W: 22 Kda) protein expression was higher in the cells exposed to GHRH (1-29)NH2 (R.I: 0.126) and lower in the cells incubated with GHRH antagonist JMR-132 (R.I: 0.035), as compared to control (R.I:0.107). […]

N-nitrotyrosine = experiment: Protein oxidation: nitrotyrosine immunoblot in LNCaP cells; conditions: 1 μM, 72 hour, control R.I: 2.903
Experimental: (§4) The detection of the carbonyl groups, the nitrotyrosine and the lipid peroxidation was performed with the Oxiselect Protein carbonyl Immunoblot, the Oxiselect Nitrotyrosine Immunoblot Kit and the Oxiselect Malondialdehyde Immunoblot Kit respectively (Cell Biolabs, San Diego, Calif.) according the manufacturer s instructions. The detection of the lipid peroxidation using a primary rabbit anti-MDA antibody (Cell Biolabs, San Diego, Calif.) according the manufacturer' instructions. The β-actin signal was used as control.
(§5) LNCaP prostate cancer cell line cultured in vitro were exposed to 1 μM JMR-132 or 1 μM GHRH(1-29)NH2. The levels of the oxidation of the proteins were determined by the detection of the N-nitrotyrosine and the protein carbonyl groups. Both were elevated in the cells exposed to GHRH (1-29)NH2 (R.I: 3.282, 7.415) and decreased in the cells incubated with GHRH antagonist JMR-132 (R.I: 1.251, 4.275), as compared to control (R.I: 2.903, 5.846). The levels of the lipid peroxidation, determined by the detection of the malondialdehyde (MDA), were increased in cells exposed to GHRH (1-29)NH2 (R.I:4.89) and decreased in cells incubated with GHRH antagonist JMR-132 (R.I: 2.973) as compared to control (R.I: 4.433). […]

phosphorylated NFκB p50 = experiment: Western Blot of phosphorylated NFκB p50 in LNCaP cells; conditions: 1 μM, 72 hours, control R.I: 0.521
Experimental: (§6) (A): is a Western Blot analysis of expression of the phosphorylated NFκB p50, caspase 3 protein and its cleaved form in LNCaP prostate cancer cell line after exposure to GHRH antagonist JMR-132 and GHRH (1-29)NH2. n=2
as §2
(§7) LNCaP cells cultured in vitro were exposed to 1 μM GHRH antagonist JMR-132 and 1 μM GHRH(1-29)NH2. The expression levels of NFκB p50, the phosphorylated NFκB p50, caspase 3 (M.W: 35 KDa) and the cleaved caspase 3 were detected by Western Blot. […]

protein carbonyl groups = experiment: Protein oxidation: protein carbonyl immunoblot in LNCaP cells; conditions: 1 μM, 72 hour, control R.I: 5.846
Experimental: as §4, §5

NFκB p50 = experiment: Western Blot of NFκB p50 in LNCaP cells; conditions: 1 μM, 72 hours
Experimental: (B): is a Western Blot analysis of expression of the NFκB p50. n=2
as §2, §7

[1] = test system: wild-type p53 tumor suppressor protein; experiment: Western Blot of wild-type p53 expression in LNCaP cells; conditions: 72 hour exposure, control R.I: 0.436
Experimental: as §2
LNCaP prostate cancer cell line cultured in vitro was exposed to two concentrations of JMR-132 and GHRH(1-29)NH2 and the expression level of the p53 tumor suppressor protein (M.W: 53 KDa) was measured by Western Blot. The p53 protein expression was higher in the cells exposed to 0.1 μM and 1 μM GHRH antagonist JMR-132 (R.I: 0.583 and 0.658 respectively) and lower in the cells incubated with 0.1 μM and 1 μM GHRH (1-29)NH2 (R.I: 0.376 and 0.264 respectively) as compared to control (R.I: 0.436)

SOD1 = experiment: Western Blot of SOD1 in LNCaP cells; conditions: 1 μM, 72 hour exposure, only detectable with GHRH (1-29)NH2
Experimental: as §1, §2, §3

NQ01 = experiment: Western Blot of NQ01 in LNCaP cells; conditions: 1 μM, 72 hour exposure, control R.I: 0.175
Experimental: as §1, §2, §3

COX 2 = experiment: Western Blot of COX 2 in LNCaP cells; conditions: 1 μM, 72 hour incubation, control R.I: 0.822
Experimental: (§8) FIG. 4: is a Western Blot analysis of expression of the enzyme COX2 and COXIV enzymes in LNCaP prostate cancer cell line after 72 hour incubation with GHRH antagonist JMR-132 and GHRH(1-29)NH2. n=2
as §2
(§9) After LNCaP prostate cancer cells cultured in vitro were exposed to 1 μM GHRH antagonist JMR-132 and GHRH(1-29)NH2, the expression levels of the enzymes COX 2 and COX IV were measured by Western Blot. […]

COX IV = experiment: Western Blot of COX IV in LNCaP cells; conditions: 1 μM, 72 hour incubation, control R.I: 0.139
Experimental: as §8, §2, §9

[2] = test system: LNCaP prostate cancer cell line; experiment: Cell proliferation rate assay in LNCaP cells; conditions: vs LNCaP cells cultured without peptide, 72 hours incubation (FIG. 1)
Text: (A) is a graphic presentation of the changes in the proliferation rate of the LNCaP prostate cancer cell line after exposure to GHRH antagonist JMR-132 and GHRH (1-29)NH2. Percentage increase or decrease are expressed vs LNCaP cells cultured in the absence of JMR-132 or GHRH (1-29)NH2*(P<0.05), **(P<0.005).
The rate of the cell proliferation […] microscope using the trypan blue assay or a Z series Coulter Counter (Beckman Coulter, Fullerton, Calif., USA). The data are expressed as the mean±SEM. Statistical evaluation of the results was performed by the Student's t test (two-tailed). P values shown are against the control group.
(§10) LNCaP prostate cancer cells were exposed to two concentrations of GHRH(1-29)NH2 and JMR-132. […] However, GHRH (1-29)NH2 at 0.1 μM concentration stimulated the proliferation rate of LNCaP cells by 13%. GHRH antagonist JMR-132 at the doses of 0.1 μM and 1 μM decreased the proliferation of LNCaP prostate cancer cell line by 32% and 37% respectively. In addition, the expression levels of the PCNA (M.W: 36 KDa) were evaluated by Western Blot. The PCNA protein expression was increased in the cells exposed to 0.1 μM and 1 μM of GHRH (1-29)NH2 (R.I: 0.77 and 0.925 respectively) and decreased in the cells that incubated with 0.1 μM of GHRH antagonist JMR-132. (R.I: 0.495) as compared to control (R.I: 0.656).

[3] = test system: Proliferating Cell Nuclear Antigen (PCNA); experiment: Western Blot of PCNA expression in LNCaP cells; conditions: control R.I: 0.656
Experimental: (B) is a Western Blot analysis of expression of the Proliferating Cell Nuclear Antigen (PCNA) in LNCaP prostate cancer cell line after exposure to GHRH antagonist JMR-132, and GHRH(1-29)NH2 n=2.
as §2, §10

malondialdehyde (MDA) = experiment: Lipid peroxidation: malondialdehyde immunoblot in LNCaP cells; conditions: 1 μM, 72 hour, control R.I: 4.433
Experimental: as §4, §5

GPX1 = experiment: Western Blot of GPX1 in LNCaP cells; conditions: 1 μM, 72 hour exposure, control R.I: 0.107
Experimental: as §1, §2, §3

reactive oxygen species = experiment: Intracellular generation of reactive oxygen species (aminophenyl fluorescein) in LNCaP cells; conditions: 10^−6 M, 30 minutes at 37° C.
Experimental: Percentage increase or decrease are expressed vs LNCaP cells cultured in the absence of JMR-132 or GHRH (1-29)NH2. *** (P<0.005).
The detection of the Reactive Oxygen Species was carried out using aminophenyl fluorescein, an indicator for the highly reactive oxygen species (Invitrogen, Carlsbad, Calif., USA). This fluorescein derivative is non fluorescent until it reacts with the hydroxyl radical, peroxynitrite anion or hypochlorite anion. […] LNCaP prostate cancer cells were seeded in 200 μl of RPMI 1640 containing 10 μM aminophenyl fluorescein at a density of 10^3 cells/well onto a 48-well plate and were incubated for 30 minutes at 37° C. with GHRH (1-29)NH2 or JMR-132 at a concentration of 10^−6 M. The fluorescence was measured using a fluorescence plate reader (VICTOR^3 Multilabel Plate Reader, Perkin Elmer, Shelton, Conn., USA) with an excitation wavelength of 490 nm and an emission wavelength of 515 nm.
LNCaP prostate cancer cell line cultured in vitro were exposed to 1 μM JMR-132 or 1 μM GHRH(1-29)NH2. The levels of the oxidation of the proteins were determined by the detection of the N-nitrotyrosine and the protein carbonyl groups. Both were elevated in the cells exposed to GHRH (1-29)NH2 (R.I: 3.282, 7.415) and decreased in the cells incubated with GHRH antagonist JMR-132 (R.I: 1.251, 4.275), as compared to control (R.I: 2.903, 5.846). […]

cleaved caspase 3 = experiment: Western Blot of cleaved caspase 3 in LNCaP cells; conditions: 1 μM, 72 hours, control R.I: 0.320
Experimental: as §6, §2, §7

caspase 3 = experiment: Western Blot of caspase 3 in LNCaP cells; conditions: 1 μM, 72 hours, control R.I: 0.108
Experimental: as §6, §2, §7

Substance	levels of the thioredoxin 1 protein (R.I) (thioredoxin 1)	N-nitrotyrosine level, protein oxidation (R.I) (N-nitrotyrosine)	expression of the phosphorylated NFκB (R.I) (phosphorylated NFκB p50)	protein carbonyl groups level, protein oxidation (R.I) (protein carbonyl groups)	expression of the NFκB (R.I), not influenced (NFκB p50)	p53 protein expression (R.I) ([1]; 0.1 μM)	p53 protein expression (R.I) ([1]; 1 μM)	NQ01 protein expression (R.I) (NQ01)	COX 2 protein expression (R.I) (COX 2)	COX IV protein expression (R.I) (COX IV)	PCNA protein expression (R.I) ([3]; 0.1 μM)	lipid peroxidation, malondialdehyde (MDA) (R.I) (malondialdehyde (MDA))	GPX1 protein expression (R.I) (GPX1)	expression of cleaved caspase 3 (R.I) (cleaved caspase 3)	expression of caspase 3 protein (R.I) (caspase 3)	also measured
GHRH(1-29)NH2 (YADAIFTNSYRKVLGQLSARKLLQDIMSR-NH2; UniProt P01286 32-60, looked up, fragment) [Growth Hormone-Releasing Hormone (1-29) amide, agonist peptide used for comparison with the antagonist]	0.277	3.282	0.623	7.415	0.766	0.376	0.264	0.196	0.928	0.237	0.77	4.89	0.126	0.182	0.083	SOD1 protein expression (R.I) (SOD1): 0.111; increase (stimulation) of the proliferation rate of LNCaP cells ([2]; 0.1 μM): 13%; increase of the proliferation rate of LNCaP cells ([2]; 1 μM): 7%; PCNA protein expression (R.I) ([3]; 1 μM): 0.925; generation of the reactive oxygen species, higher than control (reactive oxygen species): 36%
[PhAc^0-Tyr^1, D-Arg^2, Cpa^6, Ala^8, Har^9, Tyr(Me)^10, His^11, Abu^15, His^20, Nle^27, D-Arg^28, Har^29]hGH-RH(1-29)NH2 [JMR-132]	0.196	1.251	0.451	4.275	0.786	0.583	0.658	0.025	0.532	0.077	0.495	2.973	0.035	0.391	0.120	decrease of the proliferation of LNCaP prostate cancer cell line ([2]; 0.1 μM): 32%; decrease of the proliferation of LNCaP prostate cancer cell line ([2]; 1 μM): 37%; generation of the reactive oxygen species, lower than control (reactive oxygen species): 23%

From patent US20100152114A1, “Antioxidant activity of GH-RH Antagonists” (priority 2008, published 2010)
